The text below walks through data of patent US6844345B2, “Piperazine derivatives” (priority 2001, dated 2005).

The target in data set [1] is T1, 5-HT2C receptor (Homo sapiens, UniProt P28335).
T1 sequence (P28335 33-458): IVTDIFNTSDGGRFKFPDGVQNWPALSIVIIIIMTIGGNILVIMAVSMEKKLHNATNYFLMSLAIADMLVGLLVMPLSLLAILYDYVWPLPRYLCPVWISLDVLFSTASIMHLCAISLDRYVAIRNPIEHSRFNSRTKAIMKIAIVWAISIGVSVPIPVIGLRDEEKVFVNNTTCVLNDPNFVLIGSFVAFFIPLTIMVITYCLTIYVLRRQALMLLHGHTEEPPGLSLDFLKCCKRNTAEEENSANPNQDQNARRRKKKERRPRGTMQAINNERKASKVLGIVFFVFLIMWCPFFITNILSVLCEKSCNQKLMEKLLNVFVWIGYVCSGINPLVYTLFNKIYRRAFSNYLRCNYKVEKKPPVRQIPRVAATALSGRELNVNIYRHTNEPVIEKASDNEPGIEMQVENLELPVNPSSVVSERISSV
The experiment in a line: Binding to 5-HT2C receptor, [3H]-5-HT radioligand, Method (a). The note with it: CHO cell line, read-out: Ki (2C). Further details: expressed in transfected cells; host or cells: CHO cell line. The protocol: (§1) The binding of compounds of formula (I) to serotonin receptors was determined in vitro by standard methods. The preparations were investigated in accordance with the assays given hereinafter.
Method (a): For the binding to the 5-HT2C receptor the 5-HT2C receptors were radiolabeled with [^3H]-5-HT. The affinity of the compounds for 5-HT2C receptors in a CHO cell line was determined according to the procedure of D. Hoyer, G. Engel and H. O. Kalkman, European J. Pharmacol., 1985, 118, 13-23.

The target of data set [2] is T2, 5-HT2A receptor (Homo sapiens, UniProt P28223). The experiment in a line: Binding to 5-HT2A receptor, [125I]-DOI radioligand, Method (c). More on the design: expressed in transfected cells; host or cells: CHO cell line. To be noted: CHO cell line, read-out: Ki (2A). The protocol:
as §1
Method (c): For the binding to the 5-HT2A receptor the 5-HT2A receptors were radiolabeled with [^125I]-DOI. The affinity of the compounds for 5-HT2A receptors in a CHO cell line was determined according to the procedure of D. J. McKenna and S. J. Peroutka, J. Neurosci., 1989, 9, 3482-90.

The target in data set [3] is T3, human 5-HT2B receptors (Homo sapiens, UniProt P41595).
T3 construct: expressed in transfected cells; host or cells: CHO cell line
Kind of data set: Binding to 5-HT2B receptor, [3H]-5-HT radioligand, Method (b). The note with it: human receptor in CHO cell line, read-out: Ki (2B). The protocol:
as §1
Method (b): For the binding to the 5-HT2B receptor the 5-HT2B receptors were radiolabeled with [^3H]-5-HT. The affinity of the compounds for human 5-HT2B receptors in a CHO cell line was determined according to the procedure of K. Schmuck, C. Ullmer, P. Engels and H. Lubbert, FEBS Lett., 1994, 342, 85-90.

Data set [4] addresses T2, 5-HT2A receptor. Kind of data set: Functional activity, FLIPR calcium assay in CHO cells expressing human 5-HT2A. More on the design: expressed in transfected cells; host or cells: CHO cells. The data set is classed as cell-based. To be noted: for h5-HT2A Relative Efficacy: maximum fluorescent signal relative to 10 μM 5-HT (defined as 100%). The procedure:
(§2) The functional activity of compounds of formula (I) was assayed using a Fluorimetric Imaging Plate reader (FLIPR). CHO cells expressing the human 5-HT2C or human 5-HT2A receptors were counted and plated into standard 96 well microtitre plates on the day before testing to give a confluent monolayer. The cells were then dye loaded with the calcium sensitive dye, Fluo-3-AM. Unincorporated dye was removed using an automated cell washer to leave a total volume of 100 μL/well of assay buffer (Hanks balanced salt solution containing 20 mM Hepes and 2.5 mM probenecid). The drug (dissolved in 50 μL of the assay buffer) was added at a rate of 70 μL/sec to each well of the FLIPR 96 well plate during fluorescence measurements. The measurements were taken at 1 sec intervals and the maximum fluorescent signal was measured (approx. 10-15 secs after drug addition) and compared with the response produced by 10 μM 5-HT (defined as 100%) to which it was expressed as a percentage response (relative efficacy). Dose response curves were constructed using Graphpad Prism (Graph Software Inc.).

Data set [5] concerns the target T1, 5-HT2C receptor. The experiment in a line: Functional activity, FLIPR calcium assay in CHO cells expressing human 5-HT2C. More on the design: expressed in transfected cells; host or cells: CHO cells. The note with it: for h5-HT2c Relative Efficacy: maximum fluorescent signal relative to 10 μM 5-HT (defined as 100%). In kind it is cell-based. The procedure:
as §2

The mark [6] stands for this setting: FLIPR, CHO cells, Fluo-3-AM, read-out: h5-HT2A EC50.
[7] abbreviates: FLIPR, CHO cells, Fluo-3-AM, read-out: h5-HT2c EC50.

Read-outs that look alike come from different tables or passages of the source.

T2 sequence (P28223 whole entry): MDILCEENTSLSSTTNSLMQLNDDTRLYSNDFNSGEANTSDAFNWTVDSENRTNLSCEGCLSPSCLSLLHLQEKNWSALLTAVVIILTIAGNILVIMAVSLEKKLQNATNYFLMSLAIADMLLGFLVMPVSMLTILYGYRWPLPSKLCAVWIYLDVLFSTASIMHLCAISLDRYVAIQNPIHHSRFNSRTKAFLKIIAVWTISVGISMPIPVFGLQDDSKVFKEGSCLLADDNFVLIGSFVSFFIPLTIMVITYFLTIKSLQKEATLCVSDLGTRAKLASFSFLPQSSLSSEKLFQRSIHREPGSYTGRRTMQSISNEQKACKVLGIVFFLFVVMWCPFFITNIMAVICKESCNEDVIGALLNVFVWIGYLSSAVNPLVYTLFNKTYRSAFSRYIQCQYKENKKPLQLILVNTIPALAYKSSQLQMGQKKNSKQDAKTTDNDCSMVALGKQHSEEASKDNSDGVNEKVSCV
T3 sequence (P41595 whole entry): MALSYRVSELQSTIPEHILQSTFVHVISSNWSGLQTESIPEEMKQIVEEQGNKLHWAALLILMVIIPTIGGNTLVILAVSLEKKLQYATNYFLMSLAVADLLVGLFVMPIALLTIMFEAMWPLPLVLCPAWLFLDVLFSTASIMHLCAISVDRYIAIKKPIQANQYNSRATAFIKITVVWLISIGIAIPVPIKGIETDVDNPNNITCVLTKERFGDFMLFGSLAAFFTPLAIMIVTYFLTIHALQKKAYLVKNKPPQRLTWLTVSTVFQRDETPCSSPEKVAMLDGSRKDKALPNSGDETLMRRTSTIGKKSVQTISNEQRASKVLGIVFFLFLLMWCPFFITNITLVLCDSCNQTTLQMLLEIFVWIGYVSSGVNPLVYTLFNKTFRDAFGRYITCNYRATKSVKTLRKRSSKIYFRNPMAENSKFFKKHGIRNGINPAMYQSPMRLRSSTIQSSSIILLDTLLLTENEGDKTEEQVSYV

On to `Cc1cc2c(cc1Br)cc1n2[C@H](C)CNC1.Cl`, for which the melting point was 241 °C (dec.).
On the same count and under the same terms, next, `Cc1ccc2cc3n(c2c1)[C@H](C)CNC3.Cl`: 245 °C (dec.); `C[C@@H]1CNCc2cc3c(Cl)cccc3n21.Cl`: 234 to 237 °C (dec.); `C[C@@H]1CNCc2cc3cc(Br)c(F)cc3n21.Cl`: 232 °C.
On to `CCc1cccc2cc3n(c12)[C@H](C)CNC3` [Example 1, (R)-6-Ethyl-4-methyl-1,2,3,4-tetrahydro-pyrazino[1,2-a]indole], for which the Ki in data set [1] worked out at 5 nM; in data set [2], 205 nM; in data set [3], 86 nM. Besides, the EC50 is 640 nM in data set [4] (setting [6]) and 22 nM in data set [5] (setting [7]). In data set [4], the “h5-HT2A Relative Efficacy” value is listed as 23%. In addition, the “h5-HT2c Relative Efficacy” value in data set [5] is on record as 83%.
`C[C@@H]1CNCc2cc3ccc(C(F)(F)F)cc3n21` [Example 2, (R)-4-Methyl-7-trifluoromethyl-1,2,3,4-tetrahydro-pyrazino[1,2-a]indole] had a melting point of 123 to 125 °C.
Regarding `Cc1c2n(c3c(C)c(Cl)ccc13)[C@H](C)CNC2.O=C(O)C(=O)O` [Example 14, (R)-7-Chloro-4,6,10-trimethyl-1,2,3,4-tetrahydro-pyrazino[1,2-a]indole oxalate], the values for the EC50 in data set [4] (setting [6]) and in data set [5] (setting [7]) were 536 nM and 0.4 nM, respectively. Also, in data set [4], the “h5-HT2A Relative Efficacy” value is listed as 34%. Also, the “h5-HT2c Relative Efficacy” value in data set [5] is 88%.
For `C[C@@H]1CNCc2cc3cccc(OC(F)(F)F)c3n21` [Example 17, (R)-4-Methyl-6-trifluoromethoxy-1,2,3,4-tetrahydro-pyrazino[1,2-a]indole], the melting point was 58 to 60 °C.
On to `C[C@@H]1CNCc2cc3ccc(Cl)cc3n21` [Example 20, (R)-7-Chloro-4-methyl-1,2,3,4-tetrahydro-pyrazino[1,2-a]indole], for which the inhibition constant Ki in data set [1] was found to be 2.8 nM; in data set [2], 23 nM; in data set [3], 44 nM. Moreover, the EC50 in data set [4] (setting [6]) was determined as 163 nM; in data set [5] (setting [7]) it was 7 nM. In data set [4], the “h5-HT2A Relative Efficacy” value is reported as 49%. The “h5-HT2c Relative Efficacy” value in data set [5] came to 91%.
In the case of `Cc1ccc(C)c2c1cc1n2[C@H](C)CNC1` [Example 21, (R)-4,6,9-Trimethyl-1,2,3,4-tetrahydro-pyrazino[1,2-a]indole], in data set [4], the concentration giving a half-maximal response (EC50) is 121 nM and the “h5-HT2A Relative Efficacy” value was 76%. In data set [5], the EC50 amounted to 5 nM and the “h5-HT2c Relative Efficacy” value came out at 80%.
